Values of other authors, collected in patent US20130084272A1, “COMPOSITIONS, KITS AND METHODS FOR NUTRITIONAL SUPPLEMENTATION WITH TWELVE CARBON CHAIN FATTY ACIDS AND TWELVE CARBON CHAIN ACYLGLYCEROLS” (priority 2011, published 2013).

Test system: exotoxins from Gram-positive bacteria
Settings: Peterson et al. 2006; cited from earlier work

CCCCCCCCCCCC(=O)OCC(O)CO (stereo not shown) [monolaurin, glycerol monolaurate]
Effect on exotoxins from Gram-positive bacteria: inhibit the effects of exotoxins
